Where “and” joins values, the source holds several entries; their conditions need not be identical. Equal entries are not always repeated.
Legend:
Mus musculus = test: Anticonvulsant activity was determined in MES model, after 1 hour post administration in mice; format: functional
[1] = biological target: T1, Muscarinic acetylcholine receptor M1 (Rattus norvegicus, UniProt P08482); test: Displacement of [3H]pirenzepine from muscarinic M1 receptor of rat cortex homogenates.
T1 sequence (P08482 whole entry): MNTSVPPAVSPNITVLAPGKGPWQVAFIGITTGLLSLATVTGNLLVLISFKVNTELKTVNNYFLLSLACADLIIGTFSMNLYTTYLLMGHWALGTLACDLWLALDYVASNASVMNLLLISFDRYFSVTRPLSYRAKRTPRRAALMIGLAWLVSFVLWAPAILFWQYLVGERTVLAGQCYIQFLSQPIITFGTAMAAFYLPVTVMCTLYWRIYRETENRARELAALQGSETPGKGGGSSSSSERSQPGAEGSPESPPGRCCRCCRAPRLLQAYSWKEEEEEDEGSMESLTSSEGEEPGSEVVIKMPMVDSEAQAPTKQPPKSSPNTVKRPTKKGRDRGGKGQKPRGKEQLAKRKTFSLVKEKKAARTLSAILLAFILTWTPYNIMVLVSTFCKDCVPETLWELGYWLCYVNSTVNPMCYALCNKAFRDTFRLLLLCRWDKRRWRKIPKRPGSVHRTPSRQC

[2] = biological target: T2, Muscarinic acetylcholine receptor M2 (Rattus norvegicus, UniProt P10980); test: Displacement of [3H]QNB (quinuclidinyl benzylate) from muscarinic M2 receptor of rat heart homogenates.; format: tissue-based
T2 sequence (P10980 whole entry): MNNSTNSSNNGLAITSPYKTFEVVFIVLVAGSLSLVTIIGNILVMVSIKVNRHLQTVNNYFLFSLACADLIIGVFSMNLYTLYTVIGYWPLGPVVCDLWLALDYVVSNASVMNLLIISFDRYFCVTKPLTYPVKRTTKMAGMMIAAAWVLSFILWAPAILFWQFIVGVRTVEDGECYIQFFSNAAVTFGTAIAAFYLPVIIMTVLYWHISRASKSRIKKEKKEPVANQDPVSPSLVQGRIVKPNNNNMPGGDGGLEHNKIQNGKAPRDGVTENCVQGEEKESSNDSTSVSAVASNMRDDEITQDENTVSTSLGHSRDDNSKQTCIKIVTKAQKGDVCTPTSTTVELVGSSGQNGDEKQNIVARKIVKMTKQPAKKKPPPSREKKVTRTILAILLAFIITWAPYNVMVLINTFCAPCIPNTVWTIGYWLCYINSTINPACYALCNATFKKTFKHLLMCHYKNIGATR

`CCN(CC)CC#CCN1C(=O)NC(c2ccccc2)(c2ccccc2)C1=O` was tested, and the ED50 (Mus musculus) was 83.6 mg/kg, the Ki [1] was 380 nM and the Ki [2] was 950 nM.

For `CCN(CC)CC#CCN1C(=O)CC2(C1=O)c1ccccc1-c1ccccc12`, the ED50 (Mus musculus) was 23.7 mg/kg and 58 µmol/kg, the Ki [1] was 1630 nM and the Ki [2] was over 10000 nM.

`CCN(CC)CC#CCN1C(=O)c2ccccc2C1=O` showed a Ki [1] of 30 nM and a Ki [2] of 100 nM.

With `O=C1CC2(CCc3ccccc32)C(=O)N1CC#CCN1CCCC1` (stereo not drawn) the ED50 (Mus musculus) was over 600 mg/kg, the Ki [1] was 1590 nM and the Ki [2] was over 10000 nM.

With `CC(C)N(CC#CCN1C(=O)CC2(C1=O)c1ccccc1-c1ccccc12)C(C)C` the Ki [1] was 1620 nM and the Ki [2] was over 10000 nM.

`CCN(CC)CC#CCN1C(=O)CC(c2ccccc2)(c2ccccc2)C1=O` was tested, and the ED50 (Mus musculus) was 20.1 mg/kg and 49 µmol/kg, the Ki [1] was 120 nM and the Ki [2] was 380 nM.

In the case of `CCN(CC)CC#CCN1C(=O)CC2(C1=O)c1ccccc1CCc1ccccc12`, the ED50 (Mus musculus) is reported as 9.6 mg/kg and 22 µmol/kg, the Ki [1] is reported as 460 nM and the Ki [2] is reported as 2090 nM.

`CCN(CC)CC#CCN1C(=O)CC(c2ccccc2)C1=O` (stereo not drawn) was tested, and the ED50 (Mus musculus) was 48.9 mg/kg and 126 µmol/kg, the Ki [1] was 2300 nM and the Ki [2] was over 10000 nM.

Work on `O=C1NC(c2ccccc2)(c2ccccc2)C(=O)N1CC#CCN1CCCC1` yielded a Ki [1] of 640 nM and a Ki [2] of over 10000 nM.

With `CCN(CC)CC#CCN1C(=O)CC2(CCc3ccccc32)C1=O` (stereo not drawn) the Ki [1] was 680 nM and the Ki [2] was over 10000 nM.

For `CCN(CC)CC#CCN1C(=O)NC2(CCc3ccccc32)C1=O` (stereo not drawn), the ED50 (Mus musculus) was 55.4 mg/kg and 153 µmol/kg, the Ki [1] was 1050 nM and the Ki [2] was over 10000 nM.

`CC(C)N(CC#CCN1C(=O)CC(c2ccccc2)(c2ccccc2)C1=O)C(C)C` was tested, and the ED50 (Mus musculus) was 17.5 mg/kg and 40 µmol/kg, the Ki [1] was 530 nM and the Ki [2] was 440 nM.

With `O=C1NC(=O)C(c2ccccc2)(c2ccccc2)N1` [PHENYTOIN] the ED50 (Mus musculus) was 16.2 mg/kg.

From ChEMBL document CHEMBL1150993, “Design of dual acting anticonvulsant-antimuscarinic succinimide and hydantoin derivatives” (Bioorg Med Chem Lett, 1997)
